{"source": "patent US20140088056A1", "about": "“CARDIAC GLYCOSIDES ARE POTENT INHIBITORS OF INTERFERON-BETA GENE EXPRESSION” (priority 2010, published 2014)", "key": {"293T cells [1]": {"test_system": "293T cells", "assay": "Western blot analysis of apoptosis and autophagy", "format": "cell-based, human", "conditions": "8 hours, bufalin 1 nM to 10 μM, staurosporine 4 μM; for induction of LC3B-II (marker of autophagy): BFA 100 nM", "description": "(§1) The cells were also exposed to 0.1% Triton X-100 for 1 hr before the viability assay as a control (FIG. 16E). Data represent mean values±s.d. (n=3). […] Cells were harvested and washed, then stained with Allophycocyanin (APC) conjugated Annexin V and 7-AAD for 15 minutes and subjected to flow cytometry analysis. The number in each graph is the percentile of Annexin V or 7-AAD positive populations. […] Total protein lysates were prepared and separated on SDS-PAGE for Western blot analysis of PARP1, cleaved PARP1, cleaved Caspase3, LC3B, ATP1a1, and beta-actin expression.\nApoptosis and autophagy were also analyzed by Western blots. […] Total protein lysates were prepared and separated on SDS-PAGE for Western blot analysis of PARP1, cleaved PARP1, cleaved Caspase3, LC3B, ATP1a1, and beta-actin expression."}, "IFNβ promoter": {"test_system": "IFNβ promoter", "assay": "cells", "format": "cell-based, human", "conditions": "for effect of ion-channel ligands on IFNβ reporter: increasing concentrations; for IC50: Homo sapiens, HEK-293T, read-out: IC50 for inhibition of virus induced IFNβ expression", "method": "293T cells were transfected with the IFNβ promoter driving a firefly luciferase reporter together a reference renilla luciferase reporter plasmid. […] Firefly luciferase activities were measured after another 24 hrs and normalized to that of renilla activities.\n293T cells were transfected with an IFNβ promoter driving luciferase reporter, 24 hrs later, increasing amounts (10 nM to 10 uM) of Ouabain (FIG. 8A) or digoxin (FIG. 8B) were added to cells before the Sendai virus infection. Luciferase activities were measured one day later.\nApproximately 40,000 293T cells were seeded in a 96 well plate, and co-transfected with IFNβ-110 firefly luciferase reporter and renilla luciferase plasmids (Fitzgerald, K. A. et al. IKKepsilon and TBK1 are essential components of the IRF3 signaling pathway. Nat Immunol 4, 491-6 (2003)). After 24 hrs, cells were treated with various chemicals at the indicated concentrations, and sendai virus infection was initiated one hour later. After another 24 hrs, cells were lysed and subjected to Dual-Glo luciferase assay analysis (Promega) with an Analyst AD plate reader.\nHuman 293T cells were transfected with the IFNβ promoter driving the expression of luciferase construct. The cells were treated with a library of chemical compounds, and sendai virus (SeV) infection initiated one hour later. Luciferase activity was measured after another 24 hrs of culture. Signals were normalized to the samples not treated with chemicals."}, "endogenous IFNβ gene": {"test_system": "endogenous IFNβ gene", "assay": "RT-PCR of virus induced endogenous IFNβ gene in 293T cells treated with ion-channel modulators", "format": "cell-based, human", "conditions": "10 uM, 6 hrs", "description": "293T cells were treated with 10 uM of nimodipine, diazoxide or phenamil 30 min before Sendai virus infection, 6 hrs later total RNA were extracted and the expression of various genes were analyzed by RT-PCR.\nSince the major function of the pump is to maintain the cellular ion homeostasis, the inventors reasoned that it might be possible to inhibit or stimulate IFNβ induction by varying the intracellular ion concentration. The inventors thus performed luciferase reporter assays with an ion-channel ligand library, which contains various modulators for sodium, potassium, calcium and chloride channels. The experiments were conducted similarly to the initial screening assays: 293T cells were transfected with reporter plasmid, then chemical ligands were added before starting virus infection, and luciferase activity measured after another 24 hrs."}, "TNF signaling": {"test_system": "TNF signaling", "conditions": "Yang et al.; blocks TRADD recruitment, inhibits IKBα degradation; cited from earlier work"}, "293T cells [2]": {"test_system": "293T cells", "assay": "Flow cytometry analysis of apoptosis (Annexin V / 7-AAD)", "format": "cell-based, human", "conditions": "bufalin 1 μM 8 hours; staurosporine 4 μM 4 hours", "description": "as §1\nTreated cells and untreated control cells were harvested and washed with PBS, and stained with APC conjugated Annexin V and 7-AAD (both from BD Biosciences) in Annexin V binding buffer (10 mM HEPES, pH 7.4, 140 mM NaCl, 2.5 mM CaCl2) for 15 minutes at room temperature, and then subjected to flow cytometry analysis on a FACSCalibur (BD Biosciences).\nCells were harvested and washed, then stained with Allophycocyanin (APC) conjugated Annexin V and 7-AAD for 15 minutes and subjected to flow cytometry analysis. […] 11 for sturosporine."}}, "note": "Like-named read-outs stand apart in the source and are kept apart here. Marks after values point to notes of the source that are not given here."}
{"smiles": "CO/C1=C\\C(C)=C\\[C@@H](C)[C@@H](O)[C@@H](C)C/C(C)=C/C=C/[C@H](OC)[C@@H]([C@@H](C)[C@@H](O)[C@H](C)[C@@]2(O)C[C@@H](O)[C@H](C)[C@@H](C(C)C)O2)OC1=O", "note": "[BFA, bafilomycin A1]", "values": [{"measurement": "induction of LC3B-II (marker of autophagy)", "setting": "293T cells [1]", "value": "induced"}]}
{"smiles": "O=C(Nc1cccc(Nc2cc(Nc3cccc(C(F)(F)F)c3)ncn2)c1)C1CC1", "note": "[EGF receptor inhibitor]", "values": [{"measurement": "Inhibition % @ 10 μM of virus induced IFNβ expression", "setting": "IFNβ promoter; chemical library screen", "value": 38.5, "unit": "%"}]}
{"smiles": "CC#CC(=O)Nc1cc2c(Nc3ccc(F)c(Cl)c3)ncnc2cn1", "note": "[EGFR/ErbB-2/ErbB-4 Inhibitor]", "values": [{"measurement": "Inhibition % @ 10 μM of virus induced IFNβ expression", "setting": "IFNβ promoter; chemical library screen", "value": 20.6, "unit": "%"}]}
{"smiles": "Cn1c2ccccc2c2c3c(c4c5ccccc5n(CCC#N)c4c21)CNC3=O", "note": "[Go 6976]", "values": [{"measurement": "Inhibition % of virus induced IFNβ expression", "setting": "IFNβ promoter; tested at 3 μM, chemical library screen", "value": "55.9* %"}]}
{"smiles": "O=C(Nc1ccc([N+](=O)[O-])cc1O)Nc1ccccc1Br", "note": "[SB 225002]", "values": [{"measurement": "Inhibition % @ 10 μM of virus induced IFNβ expression", "setting": "IFNβ promoter; chemical library screen", "value": 50.8, "unit": "%"}]}
{"smiles": "CC1=NS(=O)(=O)c2cc(Cl)ccc2N1", "note": "[diazoxide, Diazoxide]", "values": [{"measurement": "effect of ion-channel ligands on IFNβ reporter", "setting": "IFNβ promoter", "value": "more inhibition"}, {"measurement": "virus induced expression of the endogenous IFNβ gene", "setting": "endogenous IFNβ gene", "value": "similarly inhibited"}]}
{"smiles": "C[C@H]1O[C@@H](O[C@H]2[C@@H](O)C[C@H](O[C@H]3[C@@H](O)C[C@H](O[C@H]4CC[C@@]5(C)[C@H](CC[C@@H]6[C@@H]5CC[C@]5(C)[C@@H](C7=CC(=O)OC7)CC[C@]65O)C4)O[C@@H]3C)O[C@@H]2C)C[C@H](O)[C@@H]1O", "note": "[digitoxin]", "values": [{"measurement": "TNF signaling", "setting": "TNF signaling", "value": "inhibit"}]}
{"smiles": "C[C@H]1O[C@@H](O[C@H]2[C@@H](O)C[C@H](O[C@H]3[C@@H](O)C[C@H](O[C@H]4CC[C@@]5(C)[C@H](CC[C@@H]6[C@@H]5C[C@@H](O)[C@]5(C)[C@@H](C7=CC(=O)OC7)CC[C@]65O)C4)O[C@@H]3C)O[C@@H]2C)C[C@H](O)[C@@H]1O", "note": "[digoxin]", "values": [{"measurement": "IC50", "setting": "IFNβ promoter", "value": 56.6, "unit": "nM"}]}
{"smiles": "C[C@@H]1O[C@@H](O[C@H]2C[C@@H](O)[C@]3(CO)[C@H]4[C@H](O)C[C@]5(C)[C@@H](C6=CC(=O)OC6)CC[C@]5(O)[C@@H]4CC[C@]3(O)C2)[C@H](O)[C@H](O)[C@H]1O", "note": "[ouabain]", "values": [{"measurement": "IC50", "setting": "IFNβ promoter; 293T cells, Sendai virus", "value": 64.8, "unit": "nM"}]}
{"smiles": "NC(=Nc1ccccc1)NC(=O)c1nc(Cl)c(N)nc1N", "note": "[phenamil]", "values": [{"measurement": "effect of ion-channel ligands on IFNβ reporter", "setting": "IFNβ promoter", "value": "consistently enhanced"}, {"measurement": "virus induced expression of the endogenous IFNβ gene", "setting": "endogenous IFNβ gene", "value": "less potent"}]}
{"smiles": "CN[C@@H]1C[C@H]2O[C@@](C)([C@@H]1OC)n1c3ccccc3c3c4c(c5c6ccccc6n2c5c31)C(=O)NC4", "note": "[staurosporine]", "values": [{"measurement": "Percentile of Annexin V or 7-AAD positive populations", "setting": "293T cells [2]", "value": 17.11}, {"measurement": "cleavage products of PARP1 and Caspase3 (indication of apoptosis)", "setting": "293T cells [1]", "value": "induced"}, {"measurement": "induction of LC3B-II (marker of autophagy)", "setting": "293T cells [1]", "value": "induced"}]}
